Read-outs that look alike come from different tables or passages of the source.
What was measured:
Format in all cases: binding
[1] = target: HLA-A*02:01 (Homo sapiens, UniProt P04439, D140Y/D185E/D98H/E176V/E277Q/G131W/G231S/I119V/I121R/I166T/I218V/L300P/L318F/N151K/N90K/P208A/P217A/Q86G/Q94H/R138H/R169H/T345S)
[2] = target: HLA-DRB1*01:01 (Homo sapiens, UniProt P01903+P01911, A100R/D57E/F55L/F60I/F76Y/I96L/L162R/M171V/P40L/Q125E/R42F/V115G/Y59C); conditions: reference peptide, short 15 amino acid form
[3] = target: HLA-DRB1*15:01 (Homo sapiens, UniProt P01903+P01911); conditions: reference peptide, short 15 amino acid form

## ISDEFSSNV
[1]; […], exiting peptide removed
  Practical Exchange rate: 93.5%

## PVSKMRMATPLLMQA [CLIP]
[2]
  interaction with recombinant HLA-DRB1*01:01: interacts strongly
[3]
  interaction with recombinant HLA-DRB1*15:01: interacts strongly

## SVLLFLAFV
[1]
  Practical Exchange rate: 57.5%

## YLYALVYFL
[1]; […], exiting peptide removed
  Practical Exchange rate: 85%
